Reference: the Deep4Chem optical property database

Assay: solvent given as SMILES

## COc1cc(OC)cc(C2=[O+][B-](F)(F)OC(c3ccc4ccccc4c3)=C2)c1
In ClCCl
  absorption maximum: 402 nm

## C1=Cc2nc1c(-c1cccs1)c1ccc([nH]1)c(-c1cccs1)c1nc(c(-c3cccs3)c3ccc([nH]3)c2-c2cccs2)C=C1
In CN(C)C=O
  absorption maximum: 661 nm
In ClCCl
  absorption maximum: 426 nm

## Cc1ccc(-c2cccc3ncc(-c4ccccc4)n23)cc1
In ClCCl
  absorption maximum: 341 nm

## Cc1cc(C)c(B(c2cc(-c3ccc(N(C)C)cc3)sc2-c2sc(-c3ccc(N(C)C)cc3)cc2P(=O)(c2ccccc2)c2ccccc2)c2c(C)cc(C)cc2C)c(C)c1
In CO
  absorption maximum: 435 nm

## CCCBr
In CCCCCC
  absorption maximum: 208 nm

## COCCOc1ccc(OCCOC)c(C=O)c1
In CC(C)(C)O
  absorption maximum: 350 nm
In CC(C)CO
  absorption maximum: 350 nm
In CC(C)O
  absorption maximum: 349 nm
In CCCCO
  absorption maximum: 349 nm
In CCCO
  absorption maximum: 349 nm
In CCO
  absorption maximum: 349 nm
In CN(C)C=O
  absorption maximum: 350 nm
In CNC=O
  absorption maximum: 350 nm
In CO
  absorption maximum: 348 nm
In NC=O
  absorption maximum: 353 nm
In O
  absorption maximum: 349 nm

## CSc1sc(C(=O)c2ccccc2)c2nn[nH]c(=O)c12
In C1CCOC1
  absorption maximum: 396.5 nm
In CC#N
  absorption maximum: 396 nm
In CCO
  absorption maximum: 400 nm
In CN(C)C=O
  absorption maximum: 409 nm
In CO
  absorption maximum: 400 nm
In CS(C)=O
  absorption maximum: 405.5 nm

## CC(C)(C)c1ccc2ccc3cccc4ccc1c2c34
In CCCCCC
  absorption maximum: 338 nm
In CO
  absorption maximum: 338 nm
In ClCCl
  absorption maximum: 341 nm

## CCOC(=O)/C(C#N)=C\c1cn(-c2ccccc2)nc1-c1ccccc1
In C1CCOC1
  absorption maximum: 347 nm
In C1COCCO1
  absorption maximum: 348 nm
In CCO
  absorption maximum: 347 nm
In CCOC(C)=O
  absorption maximum: 346 nm
In CN(C)C=O
  absorption maximum: 347 nm
In CO
  absorption maximum: 344 nm
In CS(C)=O
  absorption maximum: 349 nm
In Cc1ccccc1
  absorption maximum: 353 nm
In ClC(Cl)Cl
  absorption maximum: 351 nm
In ClCCl
  absorption maximum: 348 nm

## COc1ccc2ccc([O-])cc2c1
In O
  absorption maximum: 337 nm

## CCN(CC)c1ccc2c(-c3ccccc3C(=O)O)c3c([o+]c2c1)/C(=C/c1ccc(N2CCCC2)s1)CCC3
In ClCCl
  absorption maximum: 738 nm

## c1ccc(-c2nc(-c3ccc(-c4ccc(N(c5ccccc5)c5ccccc5)cc4)cn3)oc2-c2ccccc2)cc1
In C1CCOC1
  absorption maximum: 351 nm
In C1COCCO1
  absorption maximum: 354 nm
In CC#N
  absorption maximum: 353 nm
In CC(C)=O
  absorption maximum: 352 nm
In CC(C)OC(C)C
  absorption maximum: 351 nm
In CCCCCC
  absorption maximum: 353 nm
In CCCCOCCCC
  absorption maximum: 353 nm
In CCN(CC)CC
  absorption maximum: 348 nm
In CCOC(C)=O
  absorption maximum: 351 nm
In CCOCC
  absorption maximum: 348 nm
In Cc1ccccc1
  absorption maximum: 358 nm
In c1ccccc1
  absorption maximum: 359 nm

## N#Cc1c(N2CCCCC2)cc(-c2ccc(-c3ccccc3)s2)c2c1CCc1ccccc1-2
In C1CCOC1
  absorption maximum: 345 nm

## C#CCn1c2ccccc2c2cc(/C=C/c3c(Cl)c(C)c4n3[B-](F)(F)[N+]3=C(C)C(Cl)=C(C)C3=C4c3ccc(I)cc3)ccc21
In CC#N
  absorption maximum: 606 nm
In CS(C)=O
  absorption maximum: 616 nm
In ClC(Cl)Cl
  absorption maximum: 619 nm

## CCOC(=O)c1c(-c2c(Cl)c3ccccc3oc2=O)nn(-c2ccccc2)c1C(=O)OCC
In ClCCl
  absorption maximum: 322 nm

## COc1ccc(-c2nc(-c3cccc(OC)c3)[nH]c2-c2ccc(OC)cc2)cc1
In CO
  absorption maximum: 300 nm

## CN(C)c1ccc(-c2nc3cc(C(F)(F)F)ccc3n2-c2ccccc2)cc1
In CC#N
  absorption maximum: 332 nm

## COc1cccc(-n2c(-c3ccc(F)cc3)nc(C)c2C)c1
In CCCCCC
  absorption maximum: 284 nm
In CCCCO
  absorption maximum: 289 nm
In CCO
  absorption maximum: 290 nm
In CCOC(C)=O
  absorption maximum: 288 nm
In ClCCl
  absorption maximum: 284 nm

## CCOC(=O)COc1ccc(/C=C/c2c(CC)c(C)c3n2[B-](F)(F)[N+]2=C(c4[nH]c(C)c(CC)c4C)c4ccccc4C2=C3C)cc1
In C1CCOC1
  absorption maximum: 675 nm
In CC#N
  absorption maximum: 664 nm
In CCCCCC
  absorption maximum: 677 nm
In CO
  absorption maximum: 666 nm
In Cc1ccccc1
  absorption maximum: 682 nm
In ClCCl
  absorption maximum: 675 nm
